The values that follow are results of earlier work, collected in patent publication US8895756B2, “Bendamustine pharmaceutical compositions” (priority 2005, dated 2014).

The conditions of the series: pure tertiary butanol vs pure acetic acid, dimethyl sulfoxide, methylhydroxy, water or TBA/water mixtures; cited from earlier work.

In the case of `CN(CC(N)=O)C(=O)N(CCCl)N=O` [SarCNU], the “relative stability in solvents” value is “more stable in pure tertiary butanol”.
